Series [1] is described as follows: Preliminary water solubility test. To be noted: 25 °C, ultrasonic treatment 30 min, visual. Format: physicochemical.
The next series has as its system pancreatic cancer cells. In words: Clone formation assay. It is filed as cell-based. To be noted: 48 h treatment then 10 days culture, concentration-dependent, vs control. The source says: dependent manner (Figure S1C). […]
growth and survival of pancreatic cancer cells. […]
Snail and TCF8/ZEB1 both […]
are transcription factors that can inhibit the expression of E-cadherin and promote the EMT process. Vimentin is a marker protein of mesenchymal cells, and its expression increases during EMT, further contribute to the process of metastasis by supporting the structural changes needed for cell migration and invasion.
We examined the effects of compound 1a on above key proteins involved in tumor progression pathways employing Western blot analysis in PANC-1 cells and MIA PaCa-2 […]
1a might inhibit cancer cell invasion and migration by enhancing cell-cell adhesion and barrier function. Conversely, the expression levels of β-catenin, Fibronectin, Snail, […]
Cells were resuspended at a concentration of 300 cells/mL, and 2 mL of the suspension was added to each well of a 6-well plate. After the cells adhered to the plate, the compound was added, and the cells were incubated for 48 hours, followed by replacement with fresh medium. The cells were then cultured for an additional 10 days. Subsequently, the cells were fixed with methanol and stained with crystal violet. The colonies were imaged under a microscope and quantified using ImageJ.
The BeyoClick™ EdU-488 Cell Proliferatio n Assay Kit (Beyotime Biotechnology, China) was used according to the manufacturer's instructions. […]

Series [2] in a line: Stability in mouse plasma assay. Format: in vitro ADME. To be noted: 1 μM, 37 °C, 2 h incubation. The procedure: Thaw plasma at room temperature and vortex for 3–5 s. Centrifuge at 3000 rpm at 10 °C for 10 min, and carefully transfer the supernatant to a new Eppendorf tube. Preincubate the plasma at 37 °C for 10 min. Prepare a series of test substances by adding 3 μL of the compound (100 μM) to 297 μL of plasma to achieve a final concentration of 1 μM, ensuring that the DMSO concentration in plasma is 1%. Propantheline bromide is used as a positive control. Incubate the mixture at 37 °C, and at specified time points (0, 1, 2, 4, and 24 h), take 50 μL of the plasma sample. To terminate the reaction, add 250 μL of acetonitrile (containing an internal standard), vortex thoroughly, and centrifuge at 16,000 rcf (4 °C) for 10 min. Collect 130 μL of the supernatant and dilute with 70 μL of pure water for LC-MS/MS analysis. The concentration of the test substances in plasma samples was determined using LC-MS/MS. The stability of the test substance in plasma was evaluated by measuring the remaining percentage of the compound in the plasma over time.

The subject of series [3] is β-catenin, Claudin-1, E-cadherin, Fibronectin, Snail, TCF8/ZEB1, Vimentin in PANC-1 cells and MIA PaCa-2 cells. In words: Western blot assay of Wnt/EMT biomarkers. It is filed as cell-based. To be noted: PANC-1 and MIA PaCa-2 cells. An excerpt: It is well established that the metastasis of tumors was accompanied by the change of several special proteins. β-catenin is an intracellular signaling molecule primarily involved in the Wnt signaling pathway and regulates cell proliferation and differentiation. The abnormal activation of β-catenin is associated with tumor development and increased invasiveness. Claudin-1 belongs to the tight junction protein family, which maintains the barrier function between cells and is correlated with some cancers’ metastatic ability. E-cadherin is an intercellular adhesion molecule, and its decreased expression is common in the phenotype transition process of cancer cells, such as epithelial-mesenchymal transition (EMT), which is a key step in cancer metastasis. Fibronectin is an extracellular matrix protein involved in cell adhesion and migration, and its expression is often positively associated with cancer’s metastatic ability. Snail and TCF8/ZEB1 both are transcription factors that can inhibit the expression of E-cadherin and promote the EMT process. Vimentin is a marker protein of mesenchymal cells, and its expression increases during EMT, further contribute to the process of metastasis by supporting the structural changes needed for cell migration and invasion. […]
Cells were lysed in RIPA lysis buffer (Solarbio, China). The protein concentration was determined using the BCA assay. […]

For `CCCCC(C)CC(C)C(=O)N(C)C(Cc1ccc(OC)cc1)C(=O)NC(C(=O)N(C)C(C(=O)N1CC(O)CC1C(=O)N1C(=O)C=CC1C)C(C)C)C(C)OC(C)=O` (centres unmarked) [Compound 1a, Majusculamide D], the “Solubility (mg/mL)” value in series [1] is given as “Insoluble”. Moreover, in the series on pancreatic cancer cells, the colony formation entry is given as “remarkably reduced colony formation”. Besides, the “remaining percentage in mouse plasma after 2 h” value in series [2] is on record as 54.7%. For the same compound, in series [3] (increasing concentrations), the “expression levels of β-catenin, Fibronectin, Snail, TCF8/ZEB1 and Vimentin” value is “decreased”. For the same compound, the “expression levels of Claudin-1 and E-cadherin” value in series [3] (rising concentrations) is recorded as “increased”.

(Values after article PMC11679793, “Structure-Activity Relationship Study of Majusculamide D: Overcoming Metabolic Instability and Severe Toxicity with a Fluoro Analogue” (Marine Drugs, 2024).)
